{"source": "patent US20120171121A1", "about": "“Rosette Nanotubes as Drug Delivery Agents” (Brown University, priority 2011, published 2012)", "assay": "Solubility observations in D2O / water", "type": "physicochemical", "procedure": "The supernatants were characterized by DOSY NMR and UV-Vis. ^1H-NMR was used to observe the amount of drug loaded into the RNTs at various time points. All the NMR experiments were conducted on a Varian Direct Drive 600 MHz spectrometer with a dual broadband probe. UV-vis spectra were recorded on an Agilent 8453. After this series of spectral analyses were completed, CD3OD was evaporated using a stream of nitrogen and replaced with the same volume of deuterated water (D2O).\nEach solution (3 mL) was placed in a 1 cm×1 cm cuvette for UV-Vis experiments. In another series of experiments the solutions were prepared at the same concentration in D2O and analyzed by UV-Vis spectroscopy.", "note": "“Also recorded” adds a separate entry of the source."}
{"smiles": "C[C@@H]1C[C@H]2[C@@H]3CCC4=CC(=O)C=C[C@]4(C)[C@@]3(F)[C@@H](O)C[C@]2(C)[C@@]1(O)C(=O)CO", "note": "[DEX, dexamethasone]", "values": [{"measurement": "solubility in water", "result": "insoluble; also recorded: precipitates in water"}]}
